In PubChem BioAssay (NCI):
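All cell lines were grown in 96-well plates and treated with compound for 48 hours. GI50: concentration for 50% inhibition of growth. TGI: concentration producing complete growth inhibition.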

Assays:
Test in all cases: inhibition of tumour cell growth, NCI panel, 48 h
A498 renal = tested on: A498 renal
HL-60(TB) leukemia = tested on: HL-60(TB) leukemia
HS 578T breast = tested on: HS 578T breast
HT29 colon = tested on: HT29 colon
M14 melanoma = tested on: M14 melanoma
NCI-H23 lung = tested on: NCI-H23 lung
NCI-H460 lung = tested on: NCI-H460 lung
NCI-H522 lung = tested on: NCI-H522 lung
SN12C renal = tested on: SN12C renal
MDA-MB-435 = tested on: MDA-MB-435

Structure (SMILES)	GI50 (A498 renal) [µM]	TGI (A498 renal) [µM]	GI50 (HL-60(TB) leukemia) [nM]	TGI (HL-60(TB) leukemia) [µM]	GI50 (HS 578T breast) [nM]	TGI (HS 578T breast) [µM]	GI50 (HT29 colon) [µM]	TGI (HT29 colon) [µM]	GI50 (M14 melanoma) [µM]	TGI (M14 melanoma) [µM]	GI50 (NCI-H23 lung) [µM]	TGI (NCI-H23 lung) [µM]	GI50 (NCI-H460 lung) [µM]	TGI (NCI-H460 lung) [µM]	GI50 (NCI-H522 lung) [µM]	TGI (NCI-H522 lung) [µM]	GI50 (SN12C renal) [µM]	TGI (SN12C renal) [µM]	TGI (MDA-MB-435) [µM]	GI50 (MDA-MB-435) [nM]
COc1ccc2c(c1)C=C1CSCC3=Cc4cc(OC)ccc4OC13O2	0.23	0.766	270	0.801	313	> 100	0.34	> 100	0.323	> 100	1.01	> 100	0.387	> 100	0.232	0.937	0.723	> 100	–	–
O=c1[nH]cnc2c1ncn2CCCCO	–	> 100	–	> 100	–	–	–	> 100	–	> 100	–	> 100	–	> 100	–	–	–	> 100	–	–
Cc1ccc(Nc2nc(C)c(C(/C=C/c3ccc4c(c3)OCO4)=N/Nc3ccc([N+](=O)[O-])cc3[N+](=O)[O-])s2)c([N+](=O)[O-])c1	–	–	–	95	–	–	–	> 100	–	> 100	–	> 100	–	> 100	–	37.4	–	> 100	–	–
OC1c2ccccc2C2C(O)c3ccccc3C12 (stereo unspecified)	–	–	–	> 100	–	–	–	> 100	–	> 100	–	> 100	–	> 100	–	> 100	–	> 100	–	–
CC1=C(C(=O)Nc2ccccc2C)C(c2ccccc2C)C(C(=O)Nc2ccccc2C)=C(C)N1	–	> 100	–	46.5	–	–	–	43	–	–	–	68.4	–	53.9	–	29.9	–	35.8	–	–
CN(C)CC1=Nc2cccc3cccc(c23)N1	–	28.2	–	45.2	–	> 100	–	53.7	–	34.7	–	49.9	–	> 100	–	–	–	31.8	38.1	–
Cn1c2ccccc2c2[nH]c3ccccc3c(=O)c21	–	> 100	–	> 100	–	> 100	–	> 100	–	> 100	–	> 100	–	> 100	–	–	–	> 100	> 100	–
COc1cc(/C=C\c2ccc(Cl)cc2)cc(OC)c1OC	–	1.25	–	2.45	–	–	–	10.2	–	22.7	–	1.12	–	> 100	–	0.355	–	> 100	–	–
CC1CC(=O)c2c(ccc3c2C(=O)c2cccc(O)c2C3=O)C1 (stereo unspecified)	–	27.5	–	18.1	–	–	–	18.5	–	10.7	–	27.1	–	19.5	–	12.7	–	–	–	–
COc1ccc(OC)c(/C=N/N=C2\C(=O)Nc3c(Cl)cc(Cl)cc32)c1	–	> 100	–	> 100	–	83.5	–	> 100	–	> 100	–	> 100	–	> 100	–	–	–	> 100	> 100	–
O=C(CN1C(=O)S/C(=C\C(Cl)=C\c2ccccc2)C1=O)NCCCn1ccnc1	1.28	5.57	–	–	2400	7.35	2.18	6.07	1.66	3.59	2.26	6.88	2.21	6.44	2.02	5.15	2.26	7.49	4.19	1990
CCOC(=O)c1cn(CC)c2cc3c(cc2c1=O)SCS3	–	–	–	> 100	–	–	–	> 100	–	> 100	–	> 100	–	> 100	–	> 100	–	> 100	–	–
CCSC(=O)C1(C)OC2CCCCC2C1=O (stereo unspecified)	–	> 100	–	> 100	–	–	–	–	–	> 100	–	–	–	> 100	–	> 100	–	> 100	–	–
CCOC(=O)C1Oc2ccc([N+](=O)[O-])cc2C1(C)O (stereo unspecified)	–	> 100	–	> 100	–	–	–	> 100	–	> 100	–	> 100	–	> 100	–	> 100	–	> 100	–	–
O=C1NN=CN2C(=O)CCC12 (stereo unspecified)	–	> 100	–	> 100	–	–	–	–	–	> 100	–	> 100	–	> 100	–	–	–	> 100	–	–
Cc1cc(C)nc(NS(=O)(=O)c2ccc(NC(=O)c3cccc4c(N)c5ccccc5nc34)cc2)n1	–	> 100	–	–	–	–	–	–	–	> 100	–	> 100	–	> 100	–	> 100	–	> 100	–	–
NNC(=S)N/N=C(/C(=O)Nc1ccc([N+](=O)[O-])cc1)c1nc2ccc([N+](=O)[O-])cc2[nH]c1=O	–	> 100	–	> 100	–	–	–	> 100	–	> 100	–	> 100	–	> 100	–	> 100	–	> 100	–	–
COC(=O)C1C(/C=C/c2ccoc2)ON2CCC[C@@H]12 (stereo partly specified)	–	–	–	> 100	–	–	–	> 100	–	> 100	–	> 100	–	> 100	–	> 100	–	> 100	–	–
O=C1NN=C(c2ccc([N+](=O)[O-])cc2)C1n1nc(-c2ccccc2)c2ccccc2c1=O (stereo unspecified)	–	> 100	–	> 64.4	–	–	–	> 100	–	> 100	–	> 100	–	> 100	–	> 100	–	> 100	–	–
Nc1ccccc1C#C/C=C\C#Cc1ccccc1F	7.66	21	–	–	2090	5.1	5.06	47.6	5.39	18.3	10.4	26.6	6.17	21.2	6.74	23.5	7.37	20.9	4.44	2050
O=C(NN1C(=O)CSC12CCC(c1ccccc1)CC2)c1[nH]c2ccc(F)cc2c1-c1ccccc1 (stereo unspecified)	18.5	34.9	–	–	21400	52.3	14.8	30.5	20.1	35.6	17.4	32	19.6	47.7	14.3	28.2	17.6	31.8	36.7	18800
CCOC(=O)/C=C1\Oc2ccccc2C1(C)O (stereo unspecified)	–	> 100	–	> 100	–	–	–	> 100	–	> 100	–	> 100	–	> 100	–	> 100	–	> 100	–	–
